Data as given in PubChem BioAssay AID1963866 (Molecular Pharmacology Branch, DTP, NCI, 2024).

Tested on: PDC KRAS tumor spheroids with HUVEC/MSC, viability
Assay: Anticancer human tumor 349418-098-R-PDC patient-derived lung adenocarcinoma cell line growth inhibition [KRAS2]
Conditions: for IC50: curve of first compound; for viability, T/C: stronger effect = lower value; active means viability on the fitted dose curve at most 10% of control; inactive means the rest
Outline: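 KRAS-mutant tumor cells were grown as spheroids with HUVEC endothelial cells and human MSCs as stroma. Targeted agents were tested alone and with KRAS pathway inhibitors. Doses started at or near clinical Cmax, or 10 microM, descending half-log.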

[1] = second compound 0.1 µM, first compound 0.000316 µM
[2] = second compound 0.1 µM, first compound 0.001 µM
[3] = second compound 0.1 µM, first compound 0.00316 µM
[4] = second compound 0.1 µM, first compound 0.01 µM
[5] = second compound 0.1 µM, first compound 0.0316 µM
[6] = second compound 0.316 µM, first compound 0.000316 µM
[7] = second compound 0.316 µM, first compound 0.001 µM
[8] = second compound 0.316 µM, first compound 0.00316 µM
[9] = second compound 0.316 µM, first compound 0.01 µM
[10] = second compound 0.316 µM, first compound 0.0316 µM
[11] = second compound 1 µM, first compound 0.000316 µM
[12] = second compound 1 µM, first compound 0.001 µM
[13] = second compound 1 µM, first compound 0.00316 µM
[14] = second compound 1 µM, first compound 0.01 µM
[15] = second compound 1 µM, first compound 0.0316 µM
[16] = second compound 3.16 µM, first compound 0.000316 µM
[17] = second compound 3.16 µM, first compound 0.001 µM
[18] = second compound 3.16 µM, first compound 0.00316 µM
[19] = second compound 3.16 µM, first compound 0.01 µM
[20] = second compound 3.16 µM, first compound 0.0316 µM
[21] = second compound 10 µM, first compound 0.000316 µM
[22] = second compound 10 µM, first compound 0.001 µM
[23] = second compound 10 µM, first compound 0.00316 µM
[24] = second compound 10 µM, first compound 0.01 µM
[25] = second compound 10 µM, first compound 0.0316 µM
[26] = second compound 0.1 µM, first compound 0.1 µM
[27] = second compound 0.316 µM, first compound 0.1 µM
[28] = second compound 1 µM, first compound 0.1 µM
[29] = second compound 3.16 µM, first compound 0.1 µM
[30] = second compound 10 µM, first compound 0.1 µM
[31] = second compound 0.1 µM, first compound 0.316 µM
[32] = second compound 0.1 µM, first compound 1 µM
[33] = second compound 0.1 µM, first compound 3.16 µM
[34] = second compound 0.1 µM, first compound 10 µM
[35] = second compound 0.316 µM, first compound 0.316 µM
[36] = second compound 0.316 µM, first compound 1 µM
[37] = second compound 0.316 µM, first compound 3.16 µM
[38] = second compound 0.316 µM, first compound 10 µM
[39] = second compound 1 µM, first compound 0.316 µM
[40] = second compound 1 µM, first compound 1 µM
[41] = second compound 1 µM, first compound 3.16 µM
[42] = second compound 1 µM, first compound 10 µM
[43] = second compound 3.16 µM, first compound 0.316 µM
[44] = second compound 3.16 µM, first compound 1 µM
[45] = second compound 3.16 µM, first compound 3.16 µM
[46] = second compound 3.16 µM, first compound 10 µM
[47] = second compound 10 µM, first compound 0.316 µM
[48] = second compound 10 µM, first compound 1 µM
[49] = second compound 10 µM, first compound 3.16 µM
[50] = second compound 10 µM, first compound 10 µM
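Further: spheroids exposed to compounds for seven days before readout.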

CC(=O)Nc1cccc(-n2c(=O)n(C3CC3)c(=O)c3c(Nc4ccc(I)cc4F)n(C)c(=O)c(C)c32)c1 + CC1OCC2(CCN(c3cnc(Sc4ccnc(N)c4Cl)c(N)n3)CC2)C1N
< 0.1 nM: IC50 (second compound 0.1 µM) | IC50 (second compound 0.316 µM) | IC50 (second compound 1 µM) | IC50 (second compound 3.16 µM) | IC50 (second compound 10 µM)
inactive: viability, T/C (second compound 0.1 µM, first compound 0.0001 µM) 25% | viability, T/C [1] 10.6% | viability, T/C (second compound 0.316 µM, first compound 0.0001 µM) 13.9% | viability, T/C (second compound 1 µM, first compound 0.0001 µM) 12.5% | viability, T/C (second compound 3.16 µM, first compound 0.0001 µM) 16.2% | viability, T/C (second compound 10 µM, first compound 0.0001 µM) 18.9%
active: viability, T/C [2] 8.26% | viability, T/C [3] 7.14% | viability, T/C [4] 6.71% | viability, T/C [5] 4.89% | viability, T/C [6] 9.13% | viability, T/C [7] 6.31% | viability, T/C [8] 6.44% | viability, T/C [9] 5.73% | viability, T/C [10] 4.97% | viability, T/C [11] 6.75% | viability, T/C [12] 5.3% | viability, T/C [13] 5.39% | viability, T/C [14] 5.41% | viability, T/C [15] 4.31% | viability, T/C [16] 6.1% | viability, T/C [17] 5.56% | viability, T/C [18] 4.05% | viability, T/C [19] 3.76% | viability, T/C [20] 3.53% | viability, T/C [21] 6.01% | viability, T/C [22] 3.71% | viability, T/C [23] 3.71% | viability, T/C [24] 3.6% | viability, T/C [25] 3.62%

CC(C)n1nc(-c2ccc3oc(N)nc3c2)c2c(N)ncnc21 + CC1OCC2(CCN(c3cnc(Sc4ccnc(N)c4Cl)c(N)n3)CC2)C1N
0.926 nM: IC50 (second compound 1 µM)
1.04 nM: IC50 (second compound 0.1 µM)
inactive: viability, T/C [1] 88.6% | viability, T/C [2] 51.3% | viability, T/C [3] 12.7% | viability, T/C [6] 84.3% | viability, T/C [7] 45.1% | viability, T/C [8] 13.2% | viability, T/C [11] 87% | viability, T/C [12] 47.4% | viability, T/C [13] 15.5% | viability, T/C [16] 66.7% | viability, T/C [17] 48.9% | viability, T/C [18] 13.8% | viability, T/C [21] 64.2% | viability, T/C [22] 49.4% | viability, T/C [23] 15%
0.866 nM: IC50 (second compound 0.316 µM)
active: viability, T/C [4] 7.28% | viability, T/C [5] 6.47% | viability, T/C [26] 6.12% | viability, T/C [9] 6.85% | viability, T/C [10] 5.49% | viability, T/C [27] 5.49% | viability, T/C [14] 7.37% | viability, T/C [15] 5.67% | viability, T/C [28] 5.72% | viability, T/C [19] 7.85% | viability, T/C [20] 6.12% | viability, T/C [29] 5.21% | viability, T/C [24] 7.11% | viability, T/C [25] 5.4% | viability, T/C [30] 4.86%
0.929 nM: IC50 (second compound 3.16 µM)
0.95 nM: IC50 (second compound 10 µM)

COc1cc(Nc2ncc3c(n2)-c2ccc(Cl)cc2C(c2c(F)cccc2OC)=NC3)ccc1C(=O)O + CC1OCC2(CCN(c3cnc(Sc4ccnc(N)c4Cl)c(N)n3)CC2)C1N
< 31.6 nM: IC50 (second compound 3.16 µM)
50.2 nM: IC50 (second compound 1 µM)
inactive: viability, T/C [5] 56.5% | viability, T/C [26] 32.4% | viability, T/C [31] 32.4% | viability, T/C [32] 40.1% | viability, T/C [33] 30.8% | viability, T/C [34] 24% | viability, T/C [10] 57.4% | viability, T/C [27] 27.8% | viability, T/C [35] 38.8% | viability, T/C [36] 26.4% | viability, T/C [37] 40.2% | viability, T/C [38] 20.4% | viability, T/C [15] 57.4% | viability, T/C [28] 35.4% | viability, T/C [39] 39% | viability, T/C [40] 38.1% | viability, T/C [41] 27.3% | viability, T/C [42] 25% | viability, T/C [20] 39.4% | viability, T/C [29] 36.3% | viability, T/C [43] 28% | viability, T/C [44] 28.7% | viability, T/C [45] 32.9% | viability, T/C [46] 28.4% | viability, T/C [25] 51% | viability, T/C [30] 33.5% | viability, T/C [47] 32.8% | viability, T/C [48] 31.1% | viability, T/C [49] 31.4% | viability, T/C [50] 27%
33.6 nM: IC50 (second compound 10 µM)
43.1 nM: IC50 (second compound 0.1 µM)
43.6 nM: IC50 (second compound 0.316 µM)

COc1cc2nccc(Oc3ccc(NC(=O)C4(C(=O)Nc5ccc(F)cc5)CC4)cc3)c2cc1OC + CC1OCC2(CCN(c3cnc(Sc4ccnc(N)c4Cl)c(N)n3)CC2)C1N
1530 nM: IC50 (second compound 1 µM)
1700 nM: IC50 (second compound 0.1 µM)
1430 nM: IC50 (second compound 3.16 µM)
1350 nM: IC50 (second compound 10 µM)
1670 nM: IC50 (second compound 0.316 µM)
inactive: viability, T/C [5] 113% | viability, T/C [26] 104% | viability, T/C [31] 99.9% | viability, T/C [32] 78.6% | viability, T/C [33] 12.3% | viability, T/C [34] 21.2% | viability, T/C [10] 108% | viability, T/C [27] 98.4% | viability, T/C [35] 96.1% | viability, T/C [36] 79.1% | viability, T/C [37] 10.4% | viability, T/C [38] 17.9% | viability, T/C [15] 104% | viability, T/C [28] 114% | viability, T/C [39] 99.5% | viability, T/C [40] 68.7% | viability, T/C [41] 14.3% | viability, T/C [42] 22.5% | viability, T/C [20] 94.4% | viability, T/C [29] 99.7% | viability, T/C [43] 85.6% | viability, T/C [44] 66.1% | viability, T/C [45] 13.7% | viability, T/C [46] 15.5% | viability, T/C [25] 86.4% | viability, T/C [30] 80.9% | viability, T/C [47] 72.6% | viability, T/C [48] 61.5% | viability, T/C [49] 16.8% | viability, T/C [50] 17.3%
